Laboratory results published in patent publication US20140161769A1, “METHODS FOR TREATING INFLAMMATORY AUTOIMMUNE DISORDERS” (Beth Israel Deaconess Medical Center, Inc., priority 2010, published 2014).

Columns and labels:
[1] = test system: primary mesangial cells; experiment: Mesangial cell proliferation (cell cycle analysis, flow cytometry); format: cell-based, mouse
Method: FIG. 16A is a series of histograms in unstimulated cells (left) and cells stimulated with PDGF (right). FIG. 16B is a series of immunoblots of protein extracts obtained from murine mesangial cells and immunoblotted with anti-CDK2 or anti-cyclin D1 antibodies. After isolation from MRL/MPJ or MRL/lpr mice, these cells were untreated, treated with KN-93, treated with PDGF, or treated with both KN-93 and PDGF. Briefly, four hundred thousand primary mesangial cells were incubated in 2 mL of RPMI 1640 with 10% FBS. Cells were plated in 6-well plates and made quiescent by serum starvation for 24 hours. Then, cells were treated with 20 ng/ml of PDGF-BB (PeproTech, Inc. Rocky Hill, N.J.) for 24 hours. In some experiments, cells were pretreated with KN-93 (20 μM) for 48 hours before the addition of PDGF-BB. For cell cycle analysis, mesangial cells were harvested with trypsin, washed twice with PBS, fixed in cold 95% ethanol, and stored at 4° C. until use. Before flow cytometric analysis, cells were washed with PBS and centrifuged, and the cell pellets were resuspended in a solution of RNAse (0.5 mg/ml) in PBS and incubate at 37° C. for 20 minutes. Then, propidium iodide (PI) (40 μg/ml) was added in PBS for 30 minutes. Stained cells were analyzed with a flow cytometer (model FACS Scan; BD Bioscience, Franklin Lakes, N.J.). […]

[2] = test system: primary mesangial cells; experiment: Western blot of CDK2 and cyclin D1 in mesangial cells; format: cell-based, mouse; settings: mesangial cells from MRL/MPJ or MRL/lpr mice, immunoblot
Method: FIG. 16A is a series of histograms in unstimulated cells (left) and cells stimulated with PDGF (right). FIG. 16B is a series of immunoblots of protein extracts obtained from murine mesangial cells and immunoblotted with anti-CDK2 or anti-cyclin D1 antibodies. After isolation from MRL/MPJ or MRL/lpr mice, these cells were untreated, treated with KN-93, treated with PDGF, or treated with both KN-93 and PDGF. Briefly, four hundred thousand primary mesangial cells were incubated in 2 mL of RPMI 1640 with 10% FBS. Cells were plated in 6-well plates and made quiescent by serum starvation for 24 hours. Then, cells were treated with 20 ng/ml of PDGF-BB (PeproTech, Inc. Rocky Hill, N.J.) for 24 hours. In some experiments, cells were pretreated with KN-93 (20 μM) for 48 hours before the addition of PDGF-BB. For Western blot analysis, mesangial cells were homogenized in radioimmunoprecipitation assay (RIPA) buffer at 4° C. After centrifugation at 14,000 rpm for 30 min at 4° C., supernatant was collected and stored at −80° C. until use. The following antibodies were used for immunoblot assay: rabbit anti-CDK2, rabbit anti-cyclin D1 (Cell signaling) and rabbit anti-actin (Sigma).

[3] = test system: macrophages; experiment: Cytokine production in normal human macrophages; format: cell-based; settings: supernatants from macrophages incubated with PBS or LPS, KN-93 vs PBS
Method: (§1) FIG. 15A is a bar graph showing IFN-γ levels in supernatants from human T cells incubated with PBS or CD3/28 and treated with either PBS (white bars) or with KN-93 (black bars). FIG. 15B are histograms comparing CD69 expression in human T cells incubated with PBS (left) or with CD3/28 (right). Data are shown for control (gray), treatment with PBS (dotted line), and treatment with KN-93 (solid line). FIG. 15C is a series of bar graphs showing […] (left), IL-6 (middle), and TNF-α(right) levels in supernatants from macrophages incubated with PBS or LPS and treated with either PBS (white bars) or with KN-93 (black bars). Normal human T cells and macrophages were treated with PBS (control) or KN-93. […] Furthermore, the activity of IL-6 in murine mesangial cells decreases in the absence of CaMKIV. Taken together, inhibition of CaMKIV by KN-93 or absence of CaMKIV (e.g., by genetic deficiency) decreases the expression of various pro-inflammatory cytokines, and inhibitors of CaMKIV could be used to treat disorders associated with one or more of such cytokines (e.g., autoimmune disorders).

[4] = test system: Splenocytes isolated from MRL/lpr mice; experiment: CD86 expression on CD19 positive B cells of MRL/lpr splenocytes (flow cytometry); format: cell-based, mouse; settings: KN-93 (10 μM)
Method: Splenocytes were isolated from MRL/lpr mice and stimulated with LPS (1 μg/ml) or PBS for 24 hours. FIGS. 10A and 10C are bar graphs showing the expression of CD86 in LPS-stimulated cells (FIG. 10A) and unstimulated cells (FIG. 10C). A Kruskal-Wallis test was used for statistical analyses. Results are expressed as mean+SD CP=0.01; n=three 24-week-old mice per group). FIGS. 10B and 10D are representative histograms comparing CD86 expression on LPS-stimulated (FIG. 10B) and unstimulated splenocytes (FIG. 10D). Splenocytes were treated with KN-93 (10 μM) (right panel) or PBS (left panel) for 24 hours. Shaded areas represent isotype control staining.
We wished to determine whether CaMKIV deficiency suppresses CD86 expression in all types of antigen presenting cells (APC). Splenocytes were isolated from MRL/lpr and MRL/lprCaMKIV−/− mice and stimulated with LPS (1 μg/ml) or PBS for 24 hours. We stained cells with fluorochrome-conjugated antibodies against the major histocompatibility complex (MHC) class II (eBioscience) (all APCs), CD19 (B cells), CD11c (dendritic cells), and F4/80 (macrophages) (BioLegend). […]
Splenocytes isolated from MRL/lpr mice were stimulated with LPS (1 μg/ml) or PBS for 24 hours in the presence or absence of KN-93. CD19 positive B cells were analyzed for the expression of CD86. […]

[5] = test system: Normal human T cells; experiment: IFN-γ production and CD69 expression in normal human T cells; format: cell-based
Method: as §1

[6] = test system: MRL/lpr mice; experiment: Treatment of MRL/lpr mice with KN-93 (lupus nephritis; urine and kidney histopathology); format: in vivo, mouse
Method: FIG. 7A is a graph showing the weekly quantification of urinary protein and leukocytes of pre-disease 8-week-old MRL/lpr mice treated with either KN-93 (40 mg/kg) or PBS. The agent was administered by intraperitoneal injections three times a week, every other week, during an 8-week time period. The arrows indicate the administration of the treatment. FIG. 7B is a graph showing the weekly quantification of urinary protein and leukocytes of diseased 12-week-old MRL/lpr mice (n≧5 mice per group) treated with KN-93 or PBS. Treatment was administered three times a week during a 5-week time period. FIG. 7C is a series of representative images of glomerular, tubule-interstitial, and perivascular areas from 16-week-old MRL/lpr mice treated with PBS (upper panels) and KN-93 (stained with Periodic Acid Schiff). The photographs from the middle panels correspond to mice treated before the onset of proteinuria (8 week-old). The lower panels correspond to mice treated after the disease had been established. The magnification is ×40 (glomerular), ×10 (tubular), and ×20 (perivascular).
We recorded proteinuria and pyuria in CaMKIV-deficient and sufficient MRL/lpr mice from the 6th to the 24th week of age. The mice in each group were placed overnight in a Nalgene metabolic cage to collect urine. Urine was measured with Multistix 10SG reagent strips and analyzed by a Clinitek Status analyzer (Bayer Healthcare). Proteinuria increased to 3 g/L in MRL/lpr mice at the age of 14 weeks and remained at the same level thereafter. However, in MRL/lprCaMKIV−/− mice, proteinuria remained at 1 g/L throughout the observation period. The number of leukocytes in the urine increased to 500 μl at week 14 in MRL/lpr mice, whereas it remained less than 15 μl in MRL/lprCaMKIV−/− mice (FIG. 4A).
To rule out such possibility, we used KN-93, a well-known CaMKIV inhibitor (Tsung et al., J Exp Med. 204: 2913-2923, 2007; Sato et al., Nat Med. 12: 1410-1416, 2006; and Ilario et al., Blood 111: 723-731, 2008), to treat MRL/lpr mice and determine its effect on the expression of lupus nephritis. The agent was administered by intraperitoneal injections at a dose of 0.08 mg/mouse, three times a week. We treated MRL/lpr mice with PBS (control) or KN-93 either every other week from week 8 to week 16 (disease prevention) (FIG. 7A) or weekly from week 12 to week 16 (disease treatment) (FIG. 7B).
In the disease prevention experiment, KN-93 administration was started either before the onset of proteinuria, when the mice were 8 weeks old. These mice received the agent every other week. In the disease treatment experiment, the effectiveness of KN-93 in established disease was evaluated. KN-93 administration was started when mice were 12 weeks old and continued three times a week during 5 weeks. Mice of both experiments were sacrificed at the end of their 16th week of age.

[7] = kidneys of KN-93 treated MRL/lpr mice

COc1ccc(S(=O)(=O)N(CCO)c2ccccc2CN(C)CC=Cc2ccc(Cl)cc2)cc1 [KN-93, N-[2-[[[3-(4-chlorophenyl)-2-propenyl]methylamino]methyl]phenyl]-N-(2-hydroxyethyl)-4-methoxybenzenesulphonamide]
mesangial cell proliferation ([1]; with PDGF stimulation (20 ng/ml PDGF-BB 24 hours), pretreated with KN-93 (20 μM) 48 hours): suppressed | mesangial cell proliferation ([1]; without PDGF stimulation, KN-93 (20 μM) 48 hours): suppressed | presence of CD-K2 [2]: decreased | presence of cyclin D1 [2]: decreased | production of IL-1β [3]: decreased production | production of IL-6 [3]: decreased production | production of TNF-α [3]: decreased production | expression of CD86 on stimulated cells ([4]; LPS (1 μg/ml) 24 hours): suppressed | expression of CD86 in non-LPS stimulated cells ([4]; PBS 24 hours): trend towards lower expression | expression of CD69 on T cells ([5]; normal human T cells, KN-93 vs PBS): decreased expression | production of IFN-γ ([5]; supernatants from human T cells incubated with PBS or CD3/28, KN-93 vs PBS): decreased production | kidney pathology, determined histopathologically ([6]; 16-week-old MRL/lpr mice, KN-93 vs PBS): less kidney pathology | protein in the urine (proteinuria) ([6]; MRL/lpr mice, KN-93 i.p. 0.08 mg/mouse three times a week, both schemes (every other week, weeks 8-16; weekly, weeks 12-16), PBS-treated mice 3 g/L): less than 1 g/L | leukocytes in the urine (pyuria) ([6]; MRL/lpr mice, KN-93 i.p. 0.08 mg/mouse three times a week, both schemes, PBS-treated mice 500 leukocytes/μl): < 125 leukocytes/μl | glomerular crescents [6, 7]: did not have any glomerular crescents | glomerular damage, interstitial, and perivascular inflammatory cell infiltration [6, 7]: limited
